Where two headings read alike, the source gives them in different places. Each block holds one compound with its values, some of them ahead of it.
Experiments:
[1] = tested on: tonic hindlimb extension in the MEST test in rats; details: cited from earlier work
[2] = tested on: tonic hindlimb extension in the MEST test in mice; details: cited from earlier work; for effect on threshold for tonic hindlimb extension: MEST test in mice
[3] = tested on: tonic hindlimb extension in the MEST test in mice; experiment: Maximal electroshock seizure threshold (MEST) test; type: in vivo; details: 150 mg/kg i.p.
Experimental: A sinusoidal current alternation was delivered via saline-soaked transcorneal electrodes. Before stimulation, an ocular anesthetic (1% tetracaine hydrochloride solution obtained from Sigma-Aldrich, St. Louis, MO, USA) was administered to each eye of the mice. During stimulation, the mice were manually immobilized in a hand for 3–5 s and immediately relocated to a transparent box for behavioral observation after the stimulation. Hindlimb tonic extension was taken as an end point. Two experimental approaches were employed: (1) the maximal electroshock seizure threshold (MEST) test at varied current intensities and (2) the maximal electroshock (MES) test at a fixed current intensity.
In the MEST test, seizure thresholds were determined using the “up-and-down” method described by Kimball et al.[28] […] Each mouse was stimulated only once.

[4] = Chimney test (motor coordination); type: in vivo, mice; details: 150 mg/kg i.p.
Experimental: The impact of SSR504734 on motor coordination in mice was evaluated by using the chimney test. Each animal was individually placed inside a transparent Plexiglas tube with an inner diameter of 3 cm and a length of 30 cm. The tube was horizontally positioned on a table and shifted vertically once the mouse reached the opposite end. Within a 60 s time frame, the mouse was required to climb backward to escape from the tube. In order to minimize the number of animals used, a chimney test was carried out shortly before seizure tests.
(§1) Table S2. Time-course effect of SSR5504734 on neuromuscular strength and motor […]
(§2) Group Neuromuscular strength Impairment of motor
(§3) SSR504734 was dissolved in normal saline and injected i.p. at the dose of 30 mg/kg. Control animals received saline. The data are expressed as the mean ± SD of grip strengths measured in millinewtons per gram of mouse body weight (mN/g) from the grip-strength test assessing […]
(§4) coordination impairment in the chimney test. Each experimental group consisted of 12 animals. The grip-strength test results were analyzed using a one-way ANOVA with Dunnett’s post hoc test, while the data from the chimney test were statistically evaluated using Fisher’s exact probability test. *p<0.05 vs. control group.
(§5) Table S3. Effect of acute and 14-day treatment with SSR504734 on neuromuscular strength and motor coordination in mice
(§6) In acute studies, SSR504734 and sodium valproate (VPA; positive control) were injected i.p.
(§7) 60 and 15 min before the test, respectively. In subchronic studies, SSR504734 and VPA were injected i.p. every 24 h for 14 days. The last administration was made 60 and 15 min before the tests, respectively. Control animals received saline. Each experimental group consisted of 12 animals. The grip-strength test results were analyzed using a one-way ANOVA with […]
(§8) Fisher’s exact probability test.

[5] = Grip strength test (neuromuscular strength); type: in vivo, mice; details: 150 mg/kg i.p.
Experimental: The effect of SSR504734 on neuromuscular strength was determined using the grip-strength apparatus (BioSeb, Chaville, France). The apparatus consists of a steel wire grid of 8 × 8 cm, connected to an isometric force transducer. Each mouse was held by the tail, allowing it to grasp the grid with its forepaws only and steadily pulled back until it released the grid. The maximum grip strength value (in newtons; N) was measured three times for each animal. The mean force was normalized to body weight and expressed in mN/g ± SD for each experimental group. In order to minimize the number of animals used, a grip-strength test was carried out shortly before seizure tests.
as §1, §2, §3, §4, §5, §6, §7, §8

[6] = tested on: 6 Hz-induced psychomotor seizures in mice; experiment: 6 Hz-induced psychomotor seizure threshold test; type: in vivo; details: SSR504734 any of the doses tested, VPA 150 mg/kg
Experimental: Psychomotor seizures were induced through the application of rectangular pulses (0.2 ms width; 6 pulses per second) for 3 s using a Grass model CCU1 constant current unit coupled to a Grass S48 stimulator (Grass Technologies, Warwick, RI, USA). Stimuli were delivered via saline-soaked transcorneal electrodes. An ocular anesthetic (1% tetracaine hydrochloride) was administered on the animal’s corneas. Mice were restrained manually during stimulation and placed in transparent box immediately for behavioral observation. 6 Hz-induced seizures were characterized by head-nodding, chewing, eye-blinking, twitching of the vibrissae, rearing, stunned posture, forelimb clonus, and Straub tail. The absence of the described features or the return to normal exploratory behavior within 20 s poststimulation was considered as the absence of seizures. The 6 Hz seizure threshold test were conducted on groups of 20 animals stimulated with different current intensities by using the “up-and-down” method described by Kimball et al.[28]
The seizure threshold was quantified as the median current strength (CS50 value with confidence limits for 95% probability), predicting the induction of psychomotor seizures in 50% of the tested animals.

[7] = tested on: i.v. PTZ-induced seizures in mice; experiment: Intravenous (i.v.) PTZ seizure threshold test; type: in vivo; details: VPA 150 mg/kg
Experimental: Mice were individually placed in a plastic restrainer (12 cm long, 3 cm inner diameter), and the lateral vein of each mouse was catheterized using a 27-gauge needle (Sterican, B. Braun Melsungen, Melsungen, Germany). The needle was attached by polyethylene tubing (PE20RW, Plastics One Inc., Roanoke, VA, USA) to a 10 mL plastic syringe containing 1% solution of PTZ in saline (Sigma-Aldrich, St. Louis, MO, USA) and mounted to a syringe pump (model Physio 22, Hugo Sachs Elektronik, Harvard Apparatus GmbH, March-Hugstetten, Germany). Piece of adhesive tape was used to secure the needle. The proper placement of the needle in the vein was verified by the appearance of blood in the tubing. During the test, mice were placed in a transparent box for observation. The PTZ solution was administered to freely moving mice at a constant rate of 0.2 mL/min. The time intervals from the initiation of PTZ infusion to the occurrence of the three following end points, i.e., (1) the first myoclonic twitch, (2) generalized clonic seizure with loss of righting reflex, and (3) forelimb tonus, were recorded. The PTZ infusion was terminated when tonic seizures, which were often fatal for the mice, began. All mice that survived were euthanized immediately. The thresholds were calculated separately for each end point using the following formula: threshold dose of PTZ (mg/kg) = infusion duration (s) × infusion rate (mL/s) × PTZ concentration (mg/mL)/body weight (kg). Seizure threshold was expressed as the amount of PTZ (mg/kg) ± SD (standard deviation) needed to produce the first observable sign of each end point. Each group consisted of 12–15 animals.

[8] = PAMPA (Gentest Precoated PAMPA Plate System); type: in vitro ADME; details: ± SD
Experimental: (§9) A series of in vitro ADME-Tox tests were performed for SSR504734 in order to estimate its drugability. The ADME-Tox parameters including permeability, plasma protein binding, metabolic stability, neurotoxicity, and hepatotoxicity were carried out as described previously.[31],[32] The ability of SSR504734 to penetrate through the biological membrane by passive diffusion was estimated by the Gentest Precoated PAMPA Plate System (Corning, Tewksbury, MA) and expressed as the permeability coefficient (Pe). The protein binding analysis was performed by using the commercial TRANSIL^XL PPB test, which mimics in vitro physiological plasma conditions where human serum albumin (HAS) and alpha-1-acid glycoprotein AGP are present in a 24:1 ratio. The human metabolism of SSR504734 was studied using human liver microsomes (HLMs) provided by Sigma-Aldrich. The hepatotoxicity and neurotoxicity were estimated in cellular models with the use of hepatoma HepG2 and neuroblastoma SH-SY5Y cell lines to perform the preliminary safety tests. The cells were incubated with SSR504734 at the concentration range of 0.1–100 μM. 1 μM cytostatic drug doxorubicin (DX) was used as the reference.

[9] = tested on: neuroblastoma SH-SY5Y cells; experiment: Neurotoxicity, SH-SY5Y cell viability; type: cell-based; details: Homo sapiens; SH-SY5Y, 72 h of incubation
Experimental: as §9
(§10) Figure 8 Effect of cytostatic drug doxorubicin (DX) and SSR504734 on (A) hepatoma HepG2 and (B) neuroblastoma SH-SY5Y cell lines viability after 72 h of incubation at 37 °C, 5% CO2. Data are expressed as means ± SD. Statistical analysis: ****p < 0.0001 vs negative control −1% DMSO in growth media (one-way ANOVA, followed by Dunnett’s post hoc test).
(§11) Figure S8. The effect of cytostatic drug doxorubicin and SSR504734 on (A) hepatoma
(§12) HepG2 and (B) neuroblastoma SH-SY5Y cell line viability after 72 h of incubation at 37 °C,
(§13) 5% CO2. The IC50 values were calculated by GraphPad Prism 8.0.
(§14) (1 picture or pasted object on this page, not shown here)

hepatoma HepG2 cells = experiment: Hepatotoxicity, HepG2 cell viability; type: cell-based
Experimental: as §9, §10, §11, §12, §13, §14

rat GlyT1 = biological target: T1, rat GlyT1 (Rattus norvegicus, UniProt P28572); experiment: GlyT1 radioligand binding ([3H]glycine, rat brain cortex, Eurofins Panlabs); details: rat brain cortex; read-out: IC50 (reference GlyT1 inhibitor in this testing system)
T1 construct: tissue Eurofins Panlabs Discovery Services Taiwan, Ltd. (ran the assay); host or cells: Wistar rat brain cortex
T1 sequence (P28572 1-638): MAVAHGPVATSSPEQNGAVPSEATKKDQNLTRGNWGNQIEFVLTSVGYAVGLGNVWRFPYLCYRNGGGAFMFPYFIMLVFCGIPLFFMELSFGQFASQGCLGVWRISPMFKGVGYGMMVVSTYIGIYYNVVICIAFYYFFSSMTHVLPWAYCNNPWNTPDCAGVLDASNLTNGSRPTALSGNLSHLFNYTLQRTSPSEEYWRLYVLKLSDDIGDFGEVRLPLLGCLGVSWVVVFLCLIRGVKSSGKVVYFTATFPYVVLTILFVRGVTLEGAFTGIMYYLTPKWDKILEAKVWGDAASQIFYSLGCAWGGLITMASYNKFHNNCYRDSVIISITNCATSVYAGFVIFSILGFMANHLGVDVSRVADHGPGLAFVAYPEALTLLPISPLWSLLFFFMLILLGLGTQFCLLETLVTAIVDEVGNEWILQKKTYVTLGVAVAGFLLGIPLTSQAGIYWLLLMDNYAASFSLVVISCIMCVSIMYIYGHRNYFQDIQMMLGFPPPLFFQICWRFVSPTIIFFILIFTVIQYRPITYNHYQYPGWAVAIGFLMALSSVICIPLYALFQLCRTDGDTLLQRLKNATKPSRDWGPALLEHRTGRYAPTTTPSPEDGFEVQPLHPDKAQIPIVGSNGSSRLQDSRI

[10] = tested on: i.v. PTZ-induced seizures; details: cited from earlier work
GlyT1 = details: read-out: IC50 (competitive inhibitor of GlyT1); cited from earlier work

Compound: Cc1cccc(C)c1C(=O)N[C@@H](c1ccccc1)C1(N(C)C)CCCC1 [GSK931145]
- effect on threshold for tonic hindlimb extension [1]: strong, dose-dependent increase

Compound: CN(CCOc1ccc(-c2ccc3c(c2)OCO3)cc1C(C)(C)C)CC(=O)O [LY2365109]
- effect on seizure thresholds ([2]; MEST- and PTZ-induced seizure tests, mice): increased seizure thresholds

Compound: CN(CCC(Oc1ccc(-c2ccccc2)cc1)c1ccc(F)cc1)CC(=O)O (stereo not drawn) [NFPS]
- effect on threshold for tonic hindlimb extension [1]: strong, dose-dependent increase

Compound: COc1ccc2c(c1)CC[C@H](CN(C)CC(=O)O)[C@@H]2c1ccccc1 [Org25935]
- effect on threshold for tonic hindlimb extension [1]: strong, dose-dependent increase

- Impairment of motor coordination ([4]; 14-day treatment): 0%
- Impairment of motor coordination ([4]; acute treatment): 8.33%
- Neuromuscular strength ([5]; 14-day treatment): 22.27 ± 4.84 mN/kg
- Neuromuscular strength ([5]; acute treatment): 29.73 ± 4.60 mN/kg
Compound: CCCC(CCC)C(=O)O [VPA, sodium valproate]
- fold increase of seizure threshold ([3]; 14-day administration): 1.7 fold
- fold increase of seizure threshold ([3]; single administration, 15 min before test): 1.8 fold
- effect on current intensity necessary to induce psychomotor seizures ([6]; 14-day administration i.p.): marked increase
- effect on current intensity necessary to induce psychomotor seizures ([6]; single administration i.p.): marked increase
- effect on thresholds for myoclonic twitch, generalized clonus and forelimb tonus ([7]; 14-day treatment i.p.): significantly increased the thresholds
- effect on thresholds for myoclonic twitch, generalized clonus and forelimb tonus ([7]; single administration i.p.): significantly increased the thresholds

Compound: Cn1c(=O)c2c(ncn2C)n(C)c1=O [caffeine]
- Papp ([8]; PAMPA, read-out: PAMPA Pe): 77.7 ± 23 nm/s
- PAMPA Pe [8]: 7.77 10^–6 cm/s

Compound: COc1cccc2c1C(=O)c1c(O)c3c(c(O)c1C2=O)C[C@@](O)(C(=O)CO)C[C@@H]3O[C@H]1C[C@H](N)[C@H](O)[C@H](C)O1 [doxorubicin]
- IC50 [9]: 0.3 µM
- toxicity to HepG2 cells (hepatoma HepG2 cells; 1 μM, 72 h): highly toxic
- IC50 (hepatoma HepG2 cells; Homo sapiens, HepG2, 72 h of incubation): 1.91 µM

- IC50 (rat GlyT1): 55.8 µM
Compound: CNCC(=O)O [sarcosine]
- effect in the i.v. PTZ test [10]: devoid of any effect
- IC50 (GlyT1): 91 µM
- effect on threshold for tonic hindlimb extension [2]: increased the threshold
- effect on threshold for tonic hindlimb extension ([2]; listed as Sarcosine): raised the threshold

From paper PMC11926788, “Effect of SSR504734, a Selective Glycine Transporter Type 1 Inhibitor, on Seizure Thresholds, Neurotransmitter Levels, and Inflammatory Markers in Mice” (ACS Chemical Neuroscience, 2025)
